Measured values as given in US20220317138A1, “METHODS FOR DETERMINING THE CONCENTRATION OF A CARBAPENEM ANTIBIOTIC IN A BIOLOGICAL SAMPLE” (priority 2019, published 2022).
Like-named read-outs stand apart in the source and are kept apart here. Numbered stars: 1 amine (or outer) side, 2 acyl side, 3 side chain; on linkers, the order of the positions; unused ones are H or OH. Bridge positions count the residues as written; N and C are the ends. Square brackets hold non-standard residues; d marks the D form. Peptide text beside a SMILES is read from it. * marks the point of attachment. pTerphenylCO(4''-OnC5H11) = CCCCCOc1ccc(-c2ccc(-c3ccc(C(=O)*)cc3)cc2)cc1; Orn(4R-OH,5R-OH) = O=C([C@H](C[C@@H](O)[C@@H](O)N[*:3])N[*:1])[*:2]; hTyr(3S-OH,4S-OH) = N[C@H](C(=O)O)[C@H](O)[C@@H](O)c1ccc(O)cc1; Pro(3S-OH,4S-Me) = C[C@H]1CN[C@H](C(=O)O)[C@H]1O; Hyp = O=C(O)[C@@H]1C[C@@H](O)CN1

Target: beta-lactamase class D OXA-48 (Klebsiella pneumoniae, UniProt Q6XEC0)
Sequence (Q6XEC0 23-265 limits assumed): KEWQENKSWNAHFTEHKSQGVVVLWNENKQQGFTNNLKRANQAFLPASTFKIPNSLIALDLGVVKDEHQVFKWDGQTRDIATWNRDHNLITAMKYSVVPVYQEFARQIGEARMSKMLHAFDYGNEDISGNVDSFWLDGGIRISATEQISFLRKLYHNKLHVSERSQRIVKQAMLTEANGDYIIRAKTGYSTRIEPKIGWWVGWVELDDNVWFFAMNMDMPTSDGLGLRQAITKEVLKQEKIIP
Assay type: biochemical
Conditions: for Average [meropenem]: average of three replicates
[1] = second drug alone in ultrafiltrated serum at 10 times recommended blood concentration, result expressed as meropenem concentration, theoretically zero
[2] = second drug alone in ultrafiltrated serum at 10 times recommended blood concentration, result expressed as meropenem concentration, theoretically zero, replicate 1
[3] = second drug alone in ultrafiltrated serum at 10 times recommended blood concentration, result expressed as meropenem concentration, theoretically zero, replicate 2
[4] = second drug alone in ultrafiltrated serum at 10 times recommended blood concentration, result expressed as meropenem concentration, theoretically zero, replicate 3
[5] = second drug alone in ultrafiltrated serum at 10 times recommended blood concentration, […]

SMILES | Average [meropenem] [1] | [meropenem] (mg/L) Replicates 1 [2] | [meropenem] (mg/L) Replicates 2 [3] | [meropenem] (mg/L) Replicates 3 [4] | [meropenem] (mg/L) Replicates 1 | [meropenem] (mg/L) Replicates 2 | [meropenem] (mg/L) Replicates 3 | Average [meropenem] [5]
CNCC(O)c1ccc(O)c(O)c1 (centres unmarked) [Adrenaline] | -0.10 mg/L | 0.06 mg/L | -0.37 mg/L | 0.00 mg/L | – | – | – | –
CCCCCOc1ccc(-c2ccc(-c3ccc(C(=O)N[C@H]4C[C@@H](O)[C@@H](O)NC(=O)[C@@H]5[C@@H](O)[C@@H](C)CN5C(=O)[C@H]([C@@H](C)O)NC(=O)[C@H]([C@H](O)[C@@H](O)c5ccc(O)cc5)NC(=O)[C@@H]5C[C@@H](O)CN5C(=O)[C@H]([C@@H](C)O)NC4=O)cc3)cc2)cc1 [Anidulafungin] ({pTerphenylCO(4''-OnC5H11)}-[Orn(4R-OH,5R-OH)]T[Hyp][hTyr(3S-OH,4S-OH)]T[Pro(3S-OH,4S-Me)]; lactam 1-C) | – | – | – | – | 0.09 mg/L | 0.06 mg/L | 0.14 mg/L | 0.10 mg/L
[Ca+2].[Cl-].[Cl-] [Calciclo] | – | – | – | – | 0.05 mg/L | -0.04 mg/L | -0.09 mg/L | -0.03 mg/L
CC[C@H](C)C[C@H](C)CCCCCCCCC(=O)N[C@H]1C[C@@H](O)[C@@H](NCCN)NC(=O)[C@@H]2[C@@H](O)CCN2C(=O)[C@H]([C@H](O)CCN)NC(=O)[C@H]([C@H](O)[C@@H](O)c2ccc(O)cc2)NC(=O)[C@@H]2C[C@@H](O)CN2C(=O)[C@H]([C@@H](C)O)NC1=O [Caspofungin] | – | – | – | – | 0.03 mg/L | 0.06 mg/L | 0.07 mg/L | 0.05 mg/L
O=C1CN=C(c2ccccc2Cl)c2cc([N+](=O)[O-])ccc2N1 [Clonazepam] | 0.05 mg/L | 0.06 mg/L | 0.06 mg/L | 0.01 mg/L | – | – | – | –
CCCCc1oc2ccccc2c1C(=O)c1cc(I)c(OCCN(CC)CC)c(I)c1 [Cordarone] | -0.16 mg/L | -0.16 mg/L | -0.15 mg/L | -0.18 mg/L | – | – | – | –
CCCC(CCC)C(=O)[O-].[Na+] [Dapakine] | – | – | – | – | -0.10 mg/L | -0.10 mg/L | -0.09 mg/L | -0.09 mg/L
CN1C(=O)CN=C(c2ccccc2)c2cc(Cl)ccc21 [Diazepam] | 0.03 mg/L | 0.05 mg/L | 0.04 mg/L | 0.01 mg/L | – | – | – | –
O=C1NC(=O)C(c2ccccc2)(c2ccccc2)N1 [Diphantoïne] | – | – | – | – | -0.15 mg/L | -0.11 mg/L | 0.02 mg/L | -0.08 mg/L
CC(CCc1ccc(O)cc1)NCCc1ccc(O)c(O)c1 (centres unmarked) [Dobutrex] | -0.11 mg/L | -0.07 mg/L | -0.11 mg/L | -0.14 mg/L | – | – | – | –
NCCc1ccc(O)c(O)c1 [Dopamine] | -0.06 mg/L | -0.05 mg/L | -0.06 mg/L | -0.07 mg/L | – | – | – | –
OC(Cn1cncn1)(Cn1cncn1)c1ccc(F)cc1F [Fluconazole] | 0.07 mg/L | 0.02 mg/L | 0.10 mg/L | 0.11 mg/L | – | – | – | –
CC[C@@H](C(N)=O)N1CCCC1=O [Keppra] | -0.07 mg/L | -0.07 mg/L | -0.07 mg/L | -0.06 mg/L | – | – | – | –
NS(=O)(=O)c1cc(C(=O)O)c(NCc2ccco2)cc1Cl [Lasix] | -0.12 mg/L | -0.13 mg/L | -0.15 mg/L | -0.09 mg/L | – | – | – | –
